Data from US10717749B2, “Macrocyclic sulfondiimine compounds” (BAYER PHARMA AKTIENGESELLSCHAFT, priority 2015, dated 2020).

Legend:
[1] = target: T1, CDK9/CycT1 (Homo sapiens, UniProt P50750); assay: CDK9/CycT1 kinase assay (Method 1a, TR-FRET, 10 μM ATP); format: biochemical; conditions: for IC50: Method 1a, 10 μM ATP; for Selectivity CDK9 over CDK2: IC50 (CDK2)/IC50 (CDK9): Methods 1a and 2a, minimal values
T1 construct: Recombinant full-length His-tagged human CDK9 and CycT1; His; purchased Invitrogen PV4131; host or cells: insect cells
Description: 1a. CDK9/CycT1 Kinase Assay:
CDK9/CycT1-inhibitory activity of compounds of the present invention was quantified employing the CDK9/CycT1 TR-FRET assay as described in the following paragraphs:
Recombinant full-length His-tagged human CDK9 and CycT1, expressed in insect cells and purified by Ni-NTA affinity chromatography, were purchased from Invitrogen (Cat. No PV4131). As substrate for the kinase reaction biotinylated peptide biotin-Ttds-YISPLKSPYKISEG (C-terminus in amid form) was used which can be purchased e.g. from the company JERINI Peptide Technologies (Berlin, Germany). For the assay 50 nl of a 100 fold concentrated solution of the test compound in DMSO was pipetted into a black low volume 384 well microtiter plate (Greiner Bio-One, Frickenhausen, Germany), 2 μl of a solution of CDK9/CycT1 in aqueous assay buffer [50 mM Tris/HCl pH 8.0, 10 mM MgCl2, 1.0 mM dithiothreitol, 0.1 mM sodium ortho-vanadate, 0.01% (v/v) Nonidet-P40 (Sigma)] were added and the mixture was incubated for 15 min at 22° C. to allow pre-binding of the test compounds to the enzyme before the start of the kinase reaction. Then the kinase reaction was started by the addition of 3 μl of a solution of adenosine-tri-phosphate (ATP, […]=> final conc. in the 5 μl assay volume is 10 μM) and substrate (1.67 μM=> final conc. in the 5 μl assay volume is 1 μM) in assay buffer and the resulting mixture was incubated for a reaction time of 25 min at 22° C. The concentration of CDK9/CycT1 was adjusted depending of the activity of the enzyme lot and was chosen appropriate to have the assay in the linear range, typical concentrations were in the range of 1 μg/mL. The reaction was stopped by the addition of 5 μl of a solution of TR-FRET detection reagents (0.2 μM streptavidine-XL665 [Cisbio Bioassays, Codolet, France] and 1 nM anti-RB(pSer807/pSer811)-antibody from BD Pharmingen [#558389] and 1.2 nM LANCE EU-W1024 labeled anti-mouse IgG antibody [Perkin-Elmer, product no. AD0077]) in an aqueous EDTA-solution (100 mM EDTA, 0.2% (w/v) bovine serum albumin in 100 mM HEPES pH 7.5).
(§1) The resulting mixture was incubated 1 h at 22° C. to allow the formation of complex between the phosphorylated biotinylated peptide and the detection reagents. Subsequently the amount of phosphorylated substrate was evaluated by measurement of the resonance energy transfer from the Eu-chelate to the streptavidine-XL. Therefore, the fluorescence emissions at 620 nm and 665 nm after excitation at 350 nm was measured in a HTRF reader, e.g. a Rubystar (BMG Labtechnologies, Offenburg, Germany) or a Viewlux (Perkin-Elmer). The ratio of the emissions at 665 nm and at […] was taken as the measure for the amount of phosphorylated substrate. The data were normalised (enzyme reaction without inhibitor=0% inhibition, all other assay components but no enzyme=100% inhibition).

[2] = target: T2, CDK2/CycE (Homo sapiens, UniProt P24941); assay: CDK2/CycE kinase assay (Method 2a, TR-FRET, 10 μM ATP); format: biochemical
T2 construct: GST; purchased ProQinase GmbH (Freiburg, Germany); host or cells: insect cells (Sf9)
Description: 2a. CDK2/CycE Kinase Assay:
CDK2/CycE-inhibitory activity of compounds of the present invention was quantified employing the CDK2/CycE TR-FRET assay as described in the following paragraphs:
Recombinant fusion proteins of GST and human CDK2 and of GST and human CycE, expressed in insect cells (Sf9) and purified by Glutathion-Sepharose affinity chromatography, were purchased from ProQinase GmbH (Freiburg, Germany). As substrate for the kinase reaction biotinylated peptide biotin-Ttds-YISPLKSPYKISEG (C-terminus in amid form) was used which can be purchased e.g. from the company JERINI Peptide Technologies (Berlin, Germany).
For the assay 50 nl of a 100 fold concentrated solution of the test compound in DMSO was pipetted into a black low volume 384 well microtiter plate (Greiner Bio-One, Frickenhausen, Germany), 2 μl of a solution of CDK2/CycE in aqueous assay buffer [50 mM Tris/HCl pH 8.0, 10 mM MgCl2, 1.0 mM dithiothreitol, 0.1 mM sodium ortho-vanadate, 0.01% (v/v) Nonidet-P40 (Sigma)] were added and the mixture was incubated for 15 min at 22° C. to allow pre-binding of the test compounds to the enzyme before the start of the kinase reaction. […] The concentration of CDK2/CycE was adjusted depending of the activity of the enzyme lot and was chosen appropriate to have the assay in the linear range, typical concentrations were in the range of 130 ng/mL. The reaction was stopped by the addition of 5 μl of a solution of TR-FRET detection reagents (0.2 μM streptavidine-XL665 [Cisbio Bioassays, Codolet, France] and 1 nM anti-RB(pSer807/pSer811)-antibody from BD Pharmingen [#558389] and 1.2 nM LANCE EU-W1024 labeled anti-mouse IgG antibody [Perkin-Elmer, product no. AD0077]) in an aqueous EDTA-solution (100 mM EDTA, 0.2% (w/v) bovine serum albumin in 100 mM HEPES pH 7.5).
as §1, with “TR-FRET” for “HTRF”

T1 sequence (P50750 whole entry): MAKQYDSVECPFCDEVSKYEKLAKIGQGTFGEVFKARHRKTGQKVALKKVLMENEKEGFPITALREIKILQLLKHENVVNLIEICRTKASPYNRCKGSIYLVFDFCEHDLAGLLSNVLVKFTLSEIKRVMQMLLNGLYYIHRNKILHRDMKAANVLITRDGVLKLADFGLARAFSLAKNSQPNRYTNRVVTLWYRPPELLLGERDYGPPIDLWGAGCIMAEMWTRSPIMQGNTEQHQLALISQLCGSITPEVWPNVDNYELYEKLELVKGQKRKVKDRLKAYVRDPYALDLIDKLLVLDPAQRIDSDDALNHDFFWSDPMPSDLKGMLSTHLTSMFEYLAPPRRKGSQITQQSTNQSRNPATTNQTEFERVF
T1 sequence (O60563 whole entry partner): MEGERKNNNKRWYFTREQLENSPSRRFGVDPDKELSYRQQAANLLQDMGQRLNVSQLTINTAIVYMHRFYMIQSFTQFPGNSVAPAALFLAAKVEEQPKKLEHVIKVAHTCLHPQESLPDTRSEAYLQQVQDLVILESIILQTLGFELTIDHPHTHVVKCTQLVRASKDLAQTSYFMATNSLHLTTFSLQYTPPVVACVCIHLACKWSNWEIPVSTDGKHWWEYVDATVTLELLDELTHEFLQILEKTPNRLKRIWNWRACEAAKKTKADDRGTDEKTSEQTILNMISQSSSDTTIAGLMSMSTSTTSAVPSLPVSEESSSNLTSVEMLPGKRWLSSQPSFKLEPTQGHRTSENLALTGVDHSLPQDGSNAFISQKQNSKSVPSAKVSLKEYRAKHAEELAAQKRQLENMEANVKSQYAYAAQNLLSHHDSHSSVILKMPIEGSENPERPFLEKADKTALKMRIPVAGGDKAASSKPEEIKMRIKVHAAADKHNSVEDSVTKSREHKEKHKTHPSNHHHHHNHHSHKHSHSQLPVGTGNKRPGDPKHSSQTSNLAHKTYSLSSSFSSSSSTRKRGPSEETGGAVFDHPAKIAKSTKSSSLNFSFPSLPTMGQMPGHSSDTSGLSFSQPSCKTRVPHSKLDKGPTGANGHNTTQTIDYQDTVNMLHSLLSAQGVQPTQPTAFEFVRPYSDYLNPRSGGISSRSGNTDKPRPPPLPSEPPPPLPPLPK

| SMILES | IC50 [1] [nM] | Selectivity CDK9 over CDK2: IC50 (CDK2)/IC50 (CDK9) [1] | IC50 [2] [nM] |
| --- | --- | --- | --- |
| CN=S(C)(=N)Cc1cc2nc(c1)OCCCOc1cc(F)ccc1-c1cc(ncc1F)N2 (racemic) [Example 4, (rac)-8-[(N,S-dimethylsulfonodiimidoyl)methyl]-15,19-difluoro-3,4-dihydro-2H,11H-10,6-(azeno)-12,16-(metheno)-1,5,11,13-benzodioxadiazacyclooctadecine] | 9.2 | 4.1 | 37.3 |
| CS(=N)(Cc1cc2cc(c1)OCCCCOc1cc(F)ccc1-c1nc(ncc1F)N2)=NC1CC1 (racemic) [Example 9, (rac)-9-[(N-cyclopropyl-S-methylsulfonodiimidoyl)methyl]-16,20-difluoro-2,3,4,5-tetrahydro-12H-13,17-(azeno)-11,7-(metheno)-1,6,12,14-benzodioxadiazacyclononadecine] | 3.6 | 39.7 | 143 |
| CS(=N)(=N)Cc1cc2nc(c1)OCCCOc1cc(F)ccc1-c1cc(ncc1F)N2 [Example 1, 15,19-difluoro-8-[(S-methylsulfonodiimidoyl)methyl]-3,4-dihydro-2H,11H-10,6-(azeno)-12,16-(metheno)-1,5,11,13-benzodioxadiazacyclooctadecine] | 3.3 | 5.0 | 16.4 |
| CS(=N)(=N)Cc1cc2cc(c1)OCCCCOc1c(F)cccc1-c1nc(ncc1F)N2 [Example 7, 16,21-difluoro-9-[(S-methylsulfonodiimidoyl)methyl]-2,3,4,5-tetrahydro-12H-13,17-(azeno)-11,7-(metheno)-1,6,12,14-benzodioxadiazacyclononadecine] | 5.6 | 209 | 1170 |

The remaining molecules from weak to strong by IC50 [1], led by results:

| IC50 [1] [nM] | Selectivity CDK9 over CDK2: IC50 (CDK2)/IC50 (CDK9) [1] | IC50 [2] [nM] | SMILES |
| --- | --- | --- | --- |
| 8.2 | 174 | 1430 | CS(=N)(=N)Cc1cc2cc(c1)OCCCCOc1c(ccc(F)c1F)-c1nc(ncc1F)N2 [Example 6, 16,20,21-trifluoro-9-[(S-methylsulfonodiimidoyl)methyl]-2,3,4,5-tetrahydro-12H-13,17-(azeno)-11,7-(metheno)-1,6,12,14-benzodioxadiazacyclononadecine] |
| 3.7 | 19.2 | 71.2 | CS(=N)(=N)Cc1cc2nc(c1C#N)OCCCOc1cc(F)ccc1-c1cc(ncc1F)N2 [Example 8, 15,19-difluoro-8-[(S-methylsulfonodiimidoyl)methyl]-3,4-dihydro-2H,11H-10,6-(azeno)-12,16-(metheno)-1,5,11,13-benzodioxadiazacyclooctadecine-7-carbonitrile] |
| 3.4 | 27.2 | 92.6 | CS(=N)(=N)Cc1cc2cc(c1)OCCCCOc1cc(F)ccc1-c1nc(ncc1F)N2 [Example 5, 16,20-difluoro-9-[(S-methylsulfonodiimidoyl)methyl]-2,3,4,5-tetrahydro-12H-13,17-(azeno)-11,7-(metheno)-1,6,12,14-benzodioxadiazacyclononadecine] |
| 2.9 | 7.8 | 22.5 | CS(=N)(Cc1cc2nc(c1)OCCCOc1cc(F)ccc1-c1cc(ncc1F)N2)=NCCCO (racemic) [Example 2, (rac)-3-(2-{[15,19-difluoro-3,4-dihydro-2H,11H-10,6-(azeno)-12,16-(metheno)-1,5,11,13-benzodioxadiazacyclooctadecin-8-yl]methyl}-2-methyl-2λ^6-diazathia-1,2-dien-1-yl)propan-1-ol] |
| 2.9 | 2.1 | 6 | CS(=N)(Cc1cc2nc(c1)OCCCOc1cc(F)ccc1-c1cc(ncc1F)N2)=NC#N (racemic) [Example 3, (rac)-[{[15,19-difluoro-3,4-dihydro-2H,11H-10,6-(azeno)-12,16-(metheno)-1,5,11,13-benzodioxadiazacyclooctadecin-8-yl]methyl}(imino)methyl-λ^6-sulfanylidene]cyanamide] |
